Patent US9615576B2, “Pesticidal compositions and processes related thereto” (Dow AgroSciences LLC, priority 2011, dated 2017)

Assays:
[1] = test system: Beet Armyworm (BAW) (Spodoptera exigua); test: Bioassays on Beet Armyworm (BAW), 128-well diet tray assay; format: in vivo; conditions: 168 h, 50 μg/cm^2 test compound on artificial diet, second instar larvae, 25° C., five to seven days, average of eight wells, read-out: BAW Rating (% mortality)
Method: (§1) Certain molecules disclosed in this document were tested against BAW and CEW using procedures described in the following examples. In the reporting of the results, the “BAW & CEW Rating Table” was used (See Table Section).
Bioassays on BAW (Spodoptera exigua)
Bioassays on BAW were conducted using a 128-well diet tray assay. one to five second instar BAW larvae were placed in each well (3 mL) of the diet tray that had been previously filled with 1 mL of artificial diet to which 50 μg/cm^2 of the test compound (dissolved in 50 μL of 90:10 acetone-water mixture) had been applied (to each of eight wells) and then allowed to dry. Trays were covered with a clear self-adhesive cover, and held at 25° C., 14:10 light-dark for five to seven days. Percent mortality was recorded for the larvae in each well; activity in the eight wells was then averaged. The results are indicated in the table entitled “Table 3: Assay Results” (See Table Section).

[2] = test system: Corn Earworm (CEW) (Helicoverpa zea); test: Bioassays on Corn Earworm (CEW), 128-well diet tray assay; format: in vivo; conditions: 168 h, 50 μg/cm^2 test compound on artificial diet, second instar larvae, 25° C., five to seven days, average of eight wells, read-out: CEW Rating (% mortality)
Method: as §1
Bioassays on CEW (Helicoverpa zea)
Bioassays on CEW were conducted using a 128-well diet tray assay. one to five second instar CEW larvae were placed in each well (3 mL) of the diet tray that had been previously filled with 1 mL of artificial diet to which 50 μg/cm^2 of the test compound (dissolved in 50 μL of 90:10 acetone-water mixture) had been applied (to each of eight wells) and then allowed to dry. Trays were covered with a clear self-adhesive cover, and held at 25° C., 14:10 light-dark for five to seven days. Percent mortality was recorded for the larvae in each well; activity in the eight wells was then averaged. The results are indicated in the table entitled “Table 3: Assay Results” (See Table Section).

Row | Compound | mortality at 50 µg/cm2 [1] [%] | mortality at 50 µg/cm2 [2] [%]
1 | Cc1cc(/C=C/C(c2cc(Cl)c(F)c(Cl)c2)C(F)(F)F)ccc1C(=O)NCc1ccc(Cl)cn1 (centres unmarked) [AC53] | 50 to 100 | 50 to 100
2 | Cc1cc(/C=C/C(c2cc(Cl)c(F)c(Cl)c2)C(F)(F)F)ccc1C(=O)NCc1ccnc(Cl)c1 (centres unmarked) [AC54] | 50 to 100 | 50 to 100
3 | O=C(CNC(=O)c1ccc(/C=C/C(c2cc(Cl)cc(Cl)c2)C(F)(F)F)cc1Cl)NCC(F)(F)F (centres unmarked) [AC57] | 50 to 100 | 50 to 100
4 | CC(C)(C)OC(=O)CNC(=O)c1ccc(/C=C/C(c2cc(Cl)c(Cl)c(Cl)c2)C(F)(F)F)cc1Br (centres unmarked) [AC58] | 50 to 100 | 50 to 100
5 | Cc1cc(/C=C/C(c2cc(Cl)cc(Cl)c2)C(F)(F)F)ccc1C(=O)Nc1ccc(Cl)nc1 (centres unmarked) [AC59] | 50 to 100 | 50 to 100
6 | Cc1cc(/C=C/C(c2cc(Cl)cc(Cl)c2)C(F)(F)F)cnc1C(=O)NCc1ccc(Cl)nc1 (centres unmarked) [AC60] | 50 to 100 | 50 to 100
7 | O=C(NC1CSC1)c1ccc(/C=C/C(c2cc(Cl)cc(Cl)c2)C(F)(F)F)cc1F (centres unmarked) [AC61] | 50 to 100 | 50 to 100
8 | O=C(CNC(=O)c1ccc(/C=C/C(c2cc(Cl)cc(Cl)c2)C(F)(F)F)cc1F)NCC(F)(F)F (centres unmarked) [AC62] | 50 to 100 | 50 to 100
9 | O=C(NCc1ccc(Cl)nc1)c1ccc(/C=C/C(c2cc(Cl)c(F)c(Cl)c2)C(F)(F)F)cc1Br (centres unmarked) [AC63] | 50 to 100 | 50 to 100
10 | O=C(CNC(=O)c1ccc(/C=C/C(c2cc(Cl)c(Cl)c(Cl)c2)C(F)(F)F)cc1Cl)NCC(F)(F)F (centres unmarked) [AC64, (E)-2-chloro-N-(2-oxo-2-((2,2,2-trifluoroethyl)amino)ethyl)-4-(4,4,4-trifluoro-3-(3,4,5-trichlorophenyl)but-1-en-1-yl)benzamide] | 50 to 100 | 50 to 100
11 | O=C(NCc1ccc(Cl)nc1)c1ccc(/C=C/C(c2cc(Cl)c(F)c(Cl)c2)C(F)(F)F)cc1F (centres unmarked) [AC65] | 50 to 100 | 50 to 100
12 | O=C(CNC(=O)c1ccc(/C=C/C(c2cc(Cl)c(Cl)c(Cl)c2)C(F)(F)F)cc1Br)NCC(F)(F)F (centres unmarked) [AC66] | 50 to 100 | 50 to 100
13 | O=C(NC1CSC1)c1ccc(/C=C/C(c2cc(Cl)c(F)c(Cl)c2)C(F)(F)F)cc1F (centres unmarked) [AC67] | 50 to 100 | 50 to 100
14 | O=C(CNC(=O)c1ccc(/C=C/C(c2cc(Cl)c(F)c(Cl)c2)C(F)(F)F)cc1F)NCC(F)(F)F (centres unmarked) [AC68] | 50 to 100 | 50 to 100
15 | Cc1cc(/C=C/C(c2cc(Cl)c(F)c(Cl)c2)C(F)(F)F)ccc1C(=O)NCC(=O)NCC(F)(F)F (centres unmarked) [AC69] | 50 to 100 | 50 to 100
16 | COc1cc(/C=C/C(c2cc(Cl)c(F)c(Cl)c2)C(F)(F)F)ccc1C(=O)NCc1ccc(Cl)nc1 (centres unmarked) [AC70] | 0 | 0
17 | COc1cc(/C=C/C(c2cc(Cl)c(F)c(Cl)c2)C(F)(F)F)ccc1C(=O)NC1CSC1 (centres unmarked) [AC71] | 50 to 100 | 50 to 100

Row | Compound | mortality at 50 µg/cm2 [1] [%] | mortality at 50 µg/cm2 [2] [%]
18 | CCc1cc(/C=C/C(c2cc(Cl)c(F)c(Cl)c2)C(F)(F)F)ccc1C(=O)NCc1ccc(Cl)nc1 (centres unmarked) [AC72] | 50 to 100 | 50 to 100
19 | O=C(NCc1ccc(C(F)(F)F)nc1)c1ccc(/C=C/C(c2cc(Cl)c(Cl)c(Cl)c2)C(F)(F)F)cc1Br (centres unmarked) [AC75] | 50 to 100 | 50 to 100
20 | CCc1cc(/C=C/C(c2cc(Cl)c(F)c(Cl)c2)C(F)(F)F)ccc1C(=O)NCc1cccnc1Cl (centres unmarked) [AC76] | 50 to 100 | 50 to 100
21 | Cc1cc(/C=C/C(c2cc(Cl)c(F)c(Cl)c2)C(F)(F)F)ccc1C(=O)NCc1cc(Cl)ccn1 (centres unmarked) [AC77] | 50 to 100 | 50 to 100
22 | Cc1cc(/C=C/C(c2cc(Cl)c(Cl)c(Cl)c2)C(F)(F)F)ccc1C(=O)NCC(=O)NCC(F)(F)F (centres unmarked) [AC78] | 50 to 100 | 50 to 100
23 | O=C(CNC(=O)c1ccc(/C=C/C(c2cc(Cl)c(F)c(Cl)c2)C(F)(F)F)cc1Br)NCC(F)(F)F (centres unmarked) [AC79, (E)-2-bromo-4-(3-(3,5-dichloro-4-fluorophenyl)-4,4,4-trifluorobut-1-en-1-yl)-N-(2-oxo-2-((2,2,2-trifluoroethyl)amino)ethyl)benzamide] | 50 to 100 | 50 to 100
24 | CCc1cc(/C=C/C(c2cc(Cl)c(F)c(Cl)c2)C(F)(F)F)ccc1C(=O)NCC(=O)NCC(F)(F)F (centres unmarked) [AC80] | 50 to 100 | 50 to 100
25 | Cc1cc(/C=C/C(c2cc(Cl)cc(Cl)c2)C(F)(F)F)ccc1C(=O)NCC(=O)NC1CS(=O)(=O)C1 (centres unmarked) [AC81] | 50 to 100 | 0
26 | Cc1cc(/C=C/C(c2cc(Cl)cc(Cl)c2)C(F)(F)F)ccc1C(=O)N[C@H]1C[S@@+]([O-])C1 (some centres unmarked) [AC82] | 50 to 100 | 50 to 100
27 | O=C(NC1CS(=O)(=O)C1)c1ccc(/C=C/C(c2cc(Cl)cc(Cl)c2)C(F)(F)F)cc1F (centres unmarked) [AC83, (E)-4-(3-(3,5-dichlorophenyl)-4,4,4-trifluorobut-1-en-1-yl)-N-(1,1-dioxidothietan-3-yl)-2-fluorobenzamide] | 50 to 100 | 50 to 100
28 | O=C(NC1CS(=O)(=O)C1)c1ccc(/C=C/C(c2cc(Cl)c(F)c(Cl)c2)C(F)(F)F)cc1F (centres unmarked) [AC84] | 50 to 100 | 50 to 100
29 | COc1cc(/C=C/C(c2cc(Cl)c(F)c(Cl)c2)C(F)(F)F)ccc1C(=O)NC1CS(=O)(=O)C1 (centres unmarked) [AC85] | 50 to 100 | 50 to 100
30 | CCc1cc(/C=C/C(c2cc(Cl)c(F)c(Cl)c2)C(F)(F)F)ccc1C(=O)NC1CS(=O)(=O)C1 (centres unmarked) [AC86] | 50 to 100 | 50 to 100
31 | O=C(NC1C[S+]([O-])C1)c1ccc(/C=C/C(c2cc(Cl)c(F)c(Cl)c2)C(F)(F)F)cc1F (centres unmarked) [AC87] | 50 to 100 | 50 to 100
32 | Cc1cc(/C=C/C(c2cc(Cl)cc(Cl)c2)C(F)(F)F)ccc1C(=O)NCc1nnc(C2CC2)o1 (centres unmarked) [AC89, (E)-N-((5-cyclopropyl-1,3,4-oxadiazol-2-yl)methyl)-4-(3-(3,5-dichlorophenyl)-4,4,4-trifluorobut-1-en-1-yl)-2-methylbenzamide] | 50 to 100 | 50 to 100
33 | FC(F)(F)CNC(=S)CNC(=S)c1ccc(/C=C/C(c2cc(Cl)c(Cl)c(Cl)c2)C(F)(F)F)cc1Br (centres unmarked) [AC90, (E)-2-bromo-N-(2-thioxo-2-((2,2,2-trifluoroethyl)amino)ethyl)-4-(4,4,4-trifluoro-3-(3,4,5-trichlorophenyl)but-1-en-1-yl)benzothioamide] | 50 to 100 | 50 to 100
34 | O=C(CNC(=S)c1ccc(/C=C/C(c2cc(Cl)c(Cl)c(Cl)c2)C(F)(F)F)cc1Br)NCC(F)(F)F (centres unmarked) [AC91, (E)-2-(2-bromo-4-(4,4,4-trifluoro-3-(3,4,5-trichlorophenyl)but-1-en-1-yl)phenylthioamido)-N-(2,2,2-trifluoroethyl)acetamide] | 50 to 100 | 50 to 100
